Experimental data: PubChem BioAssay (NCI)
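96-well plates; 48 h exposure; 5 concentrations. Endpoints by linear interpolation between flanking doses. Not reached: highest tested concentration assigned. Definition used: TGI = concentration required for complete inhibition of growth.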

Key:
Assay in all cases: DTP human tumour cell line panel, 48 h
HCT-116 colon = tested on: HCT-116 colon
KM12 colon = tested on: KM12 colon
MCF7 breast = tested on: MCF7 breast
OVCAR-3 ovarian = tested on: OVCAR-3 ovarian
OVCAR-4 ovarian = tested on: OVCAR-4 ovarian
PC-3 prostate = tested on: PC-3 prostate
RXF 393 renal = tested on: RXF 393 renal
SF-295 CNS = tested on: SF-295 CNS
UACC-62 melanoma = tested on: UACC-62 melanoma
UO-31 renal = tested on: UO-31 renal

SMILES | TGI (HCT-116 colon) [µM] | TGI (KM12 colon) [µM] | TGI (MCF7 breast) [µM] | TGI (OVCAR-3 ovarian) [µM] | TGI (OVCAR-4 ovarian) [µM] | TGI (PC-3 prostate) [µM] | TGI (RXF 393 renal) [µM] | TGI (SF-295 CNS) [µM] | TGI (UACC-62 melanoma) [µM] | TGI (UO-31 renal) [µM]
CCOC(=N)n1c(=O)n(C2=NCCN2)c2ccccc21 | > 100 | > 100 | > 100 | > 100 | > 100 | > 100 | > 100 | > 100 | > 100 | > 100
C=CC[C@]12C[C@@H](C(=O)OC)N(C(=O)OC)[C@H]1N(S(=O)(=O)c1ccccc1)c1ccccc12 | > 100 | > 100 | > 100 | > 100 | > 100 | > 100 | 66.9 | – | – | > 100
COC(=O)c1c2c(cc3c1CC1(C3)Cc3cc4c(c(C(=O)OC)c3C1)CCCC4)CCCC2 | > 100 | > 100 | > 100 | > 100 | > 100 | 39.5 | > 100 | > 100 | > 100 | 1.23
Nc1c(-c2cccc3ccccc23)c2ccc([N+](=O)[O-])cc2c(=O)n1-c1nc2ccccc2s1 | > 40.2 | 24.4 | 7.84 | > 37 | > 53.5 | > 35.3 | > 31.3 | > 34.2 | > 100 | > 100
c1ccc2sc(SCSc3nc4ccccc4s3)nc2c1 | > 100 | > 100 | – | > 100 | > 100 | > 100 | > 100 | > 100 | > 100 | > 100
Clc1ccc(-c2nn3c(-c4ccncc4)nnc3s2)cc1 | > 100 | > 100 | > 100 | > 100 | > 100 | > 100 | 82.1 | > 100 | > 100 | > 100
N#C/C(=C\c1cc(Br)c(O)c(Br)c1)c1cccnc1 | > 100 | > 100 | > 100 | 44 | > 100 | 69.7 | > 100 | 46.7 | > 100 | 58.1
O=C(N=Nc1cc(Cl)ccc1Cl)NNc1cc(Cl)ccc1Cl | 33.6 | 33.9 | 36.4 | 32.7 | – | 22.8 | 25 | > 100 | 27 | 29
Oc1ccccc1/C=N/c1nc2cc3sc(/N=C/c4ccccc4O)nc3cc2s1 | > 100 | > 100 | > 100 | > 100 | > 100 | > 100 | > 85.3 | > 100 | > 100 | > 100
CN(C)c1nc(=NCc2ccccc2)ss1 | > 10 | > 10 | > 10 | > 10 | > 10 | > 10 | > 10 | > 10 | > 10 | > 10
O=C1C=CC(=O)N1Nc1ccc([N+](=O)[O-])cc1[N+](=O)[O-] | > 100 | > 100 | – | > 100 | > 79.9 | – | – | > 100 | > 100 | > 100
CC(C)/C(Cl)=N\OC(=O)Nc1ccc(C#N)cc1 | 17.1 | 29.9 | 22.4 | 30.5 | 3.24 | 30.1 | 8.01 | 33.2 | 31 | 21.2
COc1ccc2cc3c4cc5c(cc4cc[n+]3cc2c1OC)OCO5 | > 100 | 12.2 | > 96.2 | 21.4 | > 100 | > 100 | > 69.6 | > 93 | 27.9 | > 100
C(=N\NC1=NCCCN1)/c1ccc2ccccc2c1 | 22.4 | 28 | 15.8 | 32.2 | 39.3 | 25.5 | 30.3 | 24.7 | 30 | 23.8
Cc1cc(=O)c2c([nH]1)NS(=O)(=O)NC2=O | > 100 | > 100 | – | > 100 | > 100 | – | – | > 100 | > 100 | > 100
BrC/C=C/C[P+](c1ccccc1)(c1ccccc1)c1ccccc1 | > 100 | 14.7 | – | 58.7 | > 100 | – | – | 60.6 | 52.3 | > 100
CC1(C)N=C(C(N)=O)c2ncn(CCCO)c2N1 | > 100 | > 100 | > 100 | > 100 | > 100 | > 100 | > 100 | > 100 | > 100 | –
O=c1c2ccccc2nc2[nH][nH]c(=S)n12 | > 100 | > 100 | > 100 | > 100 | – | > 100 | – | > 100 | > 100 | > 100
Cc1cn(C2OC(C)(CO)C(O)C2O)c(=O)[nH]c1=O (stereo not given) | > 100 | > 100 | – | > 100 | > 100 | – | > 100 | > 100 | > 100 | > 100
CS(=O)(=O)OCCn1c(=O)n(CCOS(C)(=O)=O)c(=O)n(CCOS(C)(=O)=O)c1=O | > 100 | > 100 | > 100 | > 100 | > 100 | – | > 100 | > 100 | > 100 | > 100
O=c1c2cc3c(cc2[nH]c2ncccc12)OCO3 | > 10 | > 10 | > 10 | > 10 | > 10 | > 10 | > 10 | > 10 | > 10 | –
C/C(CC1C2CCCC1C2)=N\NC(N)=O (stereo not given) | > 100 | > 100 | > 100 | > 100 | > 100 | > 100 | – | > 100 | > 100 | > 100
CC(=O)N(C(C)=O)C1=C2c3ccccc3N(S(=O)(=O)c3ccccc3)C2n2c(=O)n(-c3ccccc3)c(=O)n2C1 (stereo not given) | > 100 | > 100 | – | 81.9 | – | – | – | > 100 | 35.8 | > 100
